Laboratory results reported in ChEMBL document CHEMBL1133433, “Synthesis of a novel class of cdc25A inhibitors from vitamin D3” (Bioorg Med Chem Lett, 2000).
pIC50: −log10 of the molar value.

Tests used:
[1] = molecular target: T1, M-phase inducer phosphatase 1 (Homo sapiens, UniProt P30304); assay: Concentration required for the inhibitory activity against human Cell division cycle 25A
T1 sequence (P30304 whole entry): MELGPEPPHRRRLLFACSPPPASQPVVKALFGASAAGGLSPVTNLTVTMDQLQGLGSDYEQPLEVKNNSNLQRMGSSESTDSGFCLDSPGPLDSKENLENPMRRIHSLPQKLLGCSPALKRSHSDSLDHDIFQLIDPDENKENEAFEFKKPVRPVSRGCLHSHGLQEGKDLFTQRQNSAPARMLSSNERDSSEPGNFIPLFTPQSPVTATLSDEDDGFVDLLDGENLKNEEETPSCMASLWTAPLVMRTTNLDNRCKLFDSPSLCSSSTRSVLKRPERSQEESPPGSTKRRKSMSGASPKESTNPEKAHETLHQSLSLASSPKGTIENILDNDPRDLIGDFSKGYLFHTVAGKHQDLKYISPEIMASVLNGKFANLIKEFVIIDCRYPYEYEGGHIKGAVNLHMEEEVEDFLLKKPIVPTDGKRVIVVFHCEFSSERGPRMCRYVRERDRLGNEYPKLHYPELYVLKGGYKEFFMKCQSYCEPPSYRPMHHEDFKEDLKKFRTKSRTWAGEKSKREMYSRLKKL

SBC-5 = assay: Inhibitory concentration required for antitumor activity against SBC-5 cells; assay type: functional, cell-based; conditions: Homo sapiens

pIC50 [1]	pIC50 (SBC-5)	Compound
5.05	< 4.00	CC(C)CCC[C@@H](C)[C@H]1CCC2C(CCCC(=O)O)CCC[C@@]21C (some centres not stated)
< 3.52	4.15	COC(=O)CC1CCC[C@@]2(C)C1CC[C@@H]2[C@H](C)CCCC(C)C (some centres not stated)
4.03	4.38	CC(C)CCC[C@@H](C)[C@H]1CCC2/C(=C/C=C/C(=O)O)CCC[C@@]21C (some centres not stated)
4.49	< 4.00	CC(C)CCC[C@@H](C)[C@H]1CCC2C(CC(=O)O)CCC[C@@]21C (some centres not stated)
< 3.52	4.15	COC(=O)/C=C1\CCC[C@@]2(C)C1CC[C@@H]2[C@H](C)CCCC(C)C (some centres not stated)
5.11	4.33	CC(C)CCC[C@@H](C)[C@H]1CCC2/C(=C/C(=O)O)CCC[C@@]21C (some centres not stated)
